# Experimental data published in the supplement of paper PMC4862054.
# System: DU-4475
# Experiment: normalised viability (% of control), CellTiter-Blue; higher = more viable cells (about 100 = DMSO control)
# Details: 100 nM; incubation time: 72 h
# Method in brief: (§1)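 Vehicle (100) and a positive kill control (0) anchored the normalisation of each plate, and Z'-factor was used for quality control. Breast cancer cell lines in 20 µl suspension were incubated 72 h over compound in 5 µl medium in 384-well plates, followed by CellTiter-Blue at 560/590 nm. The value is normalised viability at a single listed concentration of the series.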
row,Structure (SMILES),normalised viability
1,CN(C)c1nc(N(C)C)nc(N(C)C)n1 [Altretamine],105%
2,COC(=O)c1ccc2c(c1)NC(=O)/C2=C(\Nc1ccc(N(C)C(=O)CN2CCN(C)CC2)cc1)c1ccccc1 [BIBF 1120],91%
3,Nc1cc(C(F)(F)F)c(-c2cc(N3CCOCC3)nc(N3CCOCC3)n2)cn1 [BKM-120],101%
4,O=C(/C=C/c1cccc(S(=O)(=O)Nc2ccccc2)c1)NO [Belinostat],98.7%
5,C=C1C[C@@H]2[C@H](CC[C@]3(C)C(=O)CC[C@@H]23)[C@@]2(C)C=CC(=O)C=C12 [Exemestane],79.4%

# Same assay, conditions: 120 nM; incubation time: 72 h
row,Structure (SMILES),normalised viability
1,O=P1(N(CCCl)CCCl)NCCCO1 (stereo unspecified) [Cyclophosphamide],90.9%

# Same assay, conditions: 400 nM; incubation time: 72 h
row,Structure (SMILES),normalised viability
1,O=P1(N(CCCl)CCCl)NCCCO1 (stereo unspecified) [Cyclophosphamide],113%

# System: HCC1143
# Experiment: as above
# Details: 10 nM; incubation time: 72 h
# Method in brief: as §1
row,Structure (SMILES),normalised viability
1,Cc1cc(Nc2cc(CN3CCOCC3)c3nc(C)c(Cc4ccc(Cl)cc4F)n3n2)n[nH]1,78.1%
2,N#Cc1ccc(COC[C@H]2O[C@@H](n3c(NCc4ccc(Cl)c(Cl)c4)nc4c(N)ncnc43)[C@H](O)[C@@H]2O)cc1,90.1%
3,COc1cc(OC2CCN(C)CC2)ccc1Nc1ncc2c(n1)n(C1CCCC1)c(=O)n2C [AZ 3146],132%
4,CN(C)c1nc(N(C)C)nc(N(C)C)n1 [Altretamine],74.7%
5,COC(=O)c1ccc2c(c1)NC(=O)/C2=C(\Nc1ccc(N(C)C(=O)CN2CCN(C)CC2)cc1)c1ccccc1 [BIBF 1120],91%
6,Nc1cc(C(F)(F)F)c(-c2cc(N3CCOCC3)nc(N3CCOCC3)n2)cn1 [BKM-120],81.4%
7,O=C(/C=C/c1cccc(S(=O)(=O)Nc2ccccc2)c1)NO [Belinostat],99.4%
8,C=C1C[C@@H]2[C@H](CC[C@]3(C)C(=O)CC[C@@H]23)[C@@]2(C)C=CC(=O)C=C12 [Exemestane],88.7%

# Same assay, conditions: 40 nM; incubation time: 72 h
row,Structure (SMILES),normalised viability
1,O=P1(N(CCCl)CCCl)NCCCO1 (stereo unspecified) [Cyclophosphamide],84.1%

# Same assay, conditions: 1000 nM; incubation time: 72 h
row,Structure (SMILES),normalised viability
1,Cc1cc(Nc2cc(CN3CCOCC3)c3nc(C)c(Cc4ccc(Cl)cc4F)n3n2)n[nH]1,58.9%
2,N#Cc1ccc(COC[C@H]2O[C@@H](n3c(NCc4ccc(Cl)c(Cl)c4)nc4c(N)ncnc43)[C@H](O)[C@@H]2O)cc1,87.4%
3,COc1cc(OC2CCN(C)CC2)ccc1Nc1ncc2c(n1)n(C1CCCC1)c(=O)n2C [AZ 3146],126%
4,CN(C)c1nc(N(C)C)nc(N(C)C)n1 [Altretamine],88.4%
5,COC(=O)c1ccc2c(c1)NC(=O)/C2=C(\Nc1ccc(N(C)C(=O)CN2CCN(C)CC2)cc1)c1ccccc1 [BIBF 1120],103%
6,Nc1cc(C(F)(F)F)c(-c2cc(N3CCOCC3)nc(N3CCOCC3)n2)cn1 [BKM-120],72.8%
7,O=C(/C=C/c1cccc(S(=O)(=O)Nc2ccccc2)c1)NO [Belinostat],54%
8,C=C1C[C@@H]2[C@H](CC[C@]3(C)C(=O)CC[C@@H]23)[C@@]2(C)C=CC(=O)C=C12 [Exemestane],97.8%

# Same assay, conditions: 4000 nM; incubation time: 72 h
row,Structure (SMILES),normalised viability
1,O=P1(N(CCCl)CCCl)NCCCO1 (stereo unspecified) [Cyclophosphamide],93.6%

# Same assay, conditions: 10000 nM; incubation time: 72 h
row,Structure (SMILES),normalised viability
1,Cc1cc(Nc2cc(CN3CCOCC3)c3nc(C)c(Cc4ccc(Cl)cc4F)n3n2)n[nH]1,35.5%
2,N#Cc1ccc(COC[C@H]2O[C@@H](n3c(NCc4ccc(Cl)c(Cl)c4)nc4c(N)ncnc43)[C@H](O)[C@@H]2O)cc1,60.8%
3,COc1cc(OC2CCN(C)CC2)ccc1Nc1ncc2c(n1)n(C1CCCC1)c(=O)n2C [AZ 3146],95.3%
4,CN(C)c1nc(N(C)C)nc(N(C)C)n1 [Altretamine],91.2%
5,COC(=O)c1ccc2c(c1)NC(=O)/C2=C(\Nc1ccc(N(C)C(=O)CN2CCN(C)CC2)cc1)c1ccccc1 [BIBF 1120],56.7%
6,Nc1cc(C(F)(F)F)c(-c2cc(N3CCOCC3)nc(N3CCOCC3)n2)cn1 [BKM-120],20.8%
7,O=C(/C=C/c1cccc(S(=O)(=O)Nc2ccccc2)c1)NO [Belinostat],12.9%
8,C=C1C[C@@H]2[C@H](CC[C@]3(C)C(=O)CC[C@@H]23)[C@@]2(C)C=CC(=O)C=C12 [Exemestane],82.8%

# Same assay, conditions: 40000 nM; incubation time: 72 h
row,Structure (SMILES),normalised viability
1,O=P1(N(CCCl)CCCl)NCCCO1 (stereo unspecified) [Cyclophosphamide],87.3%

# System: HCC1599
# Experiment: as above
# Details: 10 nM; incubation time: 72 h
# Method in brief: as §1
row,Structure (SMILES),normalised viability
1,Cc1cc(Nc2cc(CN3CCOCC3)c3nc(C)c(Cc4ccc(Cl)cc4F)n3n2)n[nH]1,109%
2,N#Cc1ccc(COC[C@H]2O[C@@H](n3c(NCc4ccc(Cl)c(Cl)c4)nc4c(N)ncnc43)[C@H](O)[C@@H]2O)cc1,97.3%
3,COc1cc(OC2CCN(C)CC2)ccc1Nc1ncc2c(n1)n(C1CCCC1)c(=O)n2C [AZ 3146],107%
4,CN(C)c1nc(N(C)C)nc(N(C)C)n1 [Altretamine],95.7%
5,COC(=O)c1ccc2c(c1)NC(=O)/C2=C(\Nc1ccc(N(C)C(=O)CN2CCN(C)CC2)cc1)c1ccccc1 [BIBF 1120],90.9%
6,Nc1cc(C(F)(F)F)c(-c2cc(N3CCOCC3)nc(N3CCOCC3)n2)cn1 [BKM-120],92.8%
7,O=C(/C=C/c1cccc(S(=O)(=O)Nc2ccccc2)c1)NO [Belinostat],90%
8,C=C1C[C@@H]2[C@H](CC[C@]3(C)C(=O)CC[C@@H]23)[C@@]2(C)C=CC(=O)C=C12 [Exemestane],81.7%

# Same assay, conditions: 40 nM; incubation time: 72 h
row,Structure (SMILES),normalised viability
1,O=P1(N(CCCl)CCCl)NCCCO1 (stereo unspecified) [Cyclophosphamide],89.4%

# Same assay, conditions: 1000 nM; incubation time: 72 h
row,Structure (SMILES),normalised viability
1,Cc1cc(Nc2cc(CN3CCOCC3)c3nc(C)c(Cc4ccc(Cl)cc4F)n3n2)n[nH]1,90.5%
2,N#Cc1ccc(COC[C@H]2O[C@@H](n3c(NCc4ccc(Cl)c(Cl)c4)nc4c(N)ncnc43)[C@H](O)[C@@H]2O)cc1,65.6%
3,COc1cc(OC2CCN(C)CC2)ccc1Nc1ncc2c(n1)n(C1CCCC1)c(=O)n2C [AZ 3146],121%
4,CN(C)c1nc(N(C)C)nc(N(C)C)n1 [Altretamine],98.2%
5,COC(=O)c1ccc2c(c1)NC(=O)/C2=C(\Nc1ccc(N(C)C(=O)CN2CCN(C)CC2)cc1)c1ccccc1 [BIBF 1120],95.9%
6,Nc1cc(C(F)(F)F)c(-c2cc(N3CCOCC3)nc(N3CCOCC3)n2)cn1 [BKM-120],63.6%
7,O=C(/C=C/c1cccc(S(=O)(=O)Nc2ccccc2)c1)NO [Belinostat],33.2%
8,C=C1C[C@@H]2[C@H](CC[C@]3(C)C(=O)CC[C@@H]23)[C@@]2(C)C=CC(=O)C=C12 [Exemestane],86.6%

# Same assay, conditions: 4000 nM; incubation time: 72 h
row,Structure (SMILES),normalised viability
1,O=P1(N(CCCl)CCCl)NCCCO1 (stereo unspecified) [Cyclophosphamide],78%

# Same assay, conditions: 10000 nM; incubation time: 72 h
row,Structure (SMILES),normalised viability
1,Cc1cc(Nc2cc(CN3CCOCC3)c3nc(C)c(Cc4ccc(Cl)cc4F)n3n2)n[nH]1,92%
2,N#Cc1ccc(COC[C@H]2O[C@@H](n3c(NCc4ccc(Cl)c(Cl)c4)nc4c(N)ncnc43)[C@H](O)[C@@H]2O)cc1,22%
3,COc1cc(OC2CCN(C)CC2)ccc1Nc1ncc2c(n1)n(C1CCCC1)c(=O)n2C [AZ 3146],111%
4,CN(C)c1nc(N(C)C)nc(N(C)C)n1 [Altretamine],73.5%
5,COC(=O)c1ccc2c(c1)NC(=O)/C2=C(\Nc1ccc(N(C)C(=O)CN2CCN(C)CC2)cc1)c1ccccc1 [BIBF 1120],65.1%
6,Nc1cc(C(F)(F)F)c(-c2cc(N3CCOCC3)nc(N3CCOCC3)n2)cn1 [BKM-120],32.7%
7,O=C(/C=C/c1cccc(S(=O)(=O)Nc2ccccc2)c1)NO [Belinostat],15.4%
8,C=C1C[C@@H]2[C@H](CC[C@]3(C)C(=O)CC[C@@H]23)[C@@]2(C)C=CC(=O)C=C12 [Exemestane],77%

# Same assay, conditions: 40000 nM; incubation time: 72 h
row,Structure (SMILES),normalised viability
1,O=P1(N(CCCl)CCCl)NCCCO1 (stereo unspecified) [Cyclophosphamide],91.5%
